Like-named read-outs stand apart in the source and are kept apart here.
Test system: human σ1 receptor and human μ-opioid receptor
Assay: μ and σ1 dual binding: human σ1 receptor radioligand assay ([3H](+)-pentazocine, transfected HEK-293 membranes) and human μ-opioid receptor radioligand assay ([3H]-DAMGO, transfected CHO-K1 membranes)
Set-up: key to μ and σ1 dual binding: +: Both Ki-μ and Ki-σ1>=500 nM; ++: One Ki<500 nM while the other Ki is >=500 nM; +++: Both Ki-μ and Ki-σ1<500 nM; ++++: Both Ki-μ and Ki-σ1<100 nM
[1] = one combined class for Ki-μ and Ki-σ1

Cn1nccc1C(c1ccccc1)N1CCN(CCc2ccncc2)CC1 (centres unmarked) [Example 37, 1-((1-methyl-1H-pyrazol-5-yl)(phenyl)methyl)-4-(2-(pyridin-4-yl)ethyl)piperazine]
μ and σ1 dual binding: ++

Cn1nccc1C(c1ccc(F)cn1)N1CCN(CCc2ccccc2)CC1 (centres unmarked) [Example 12, 1-((5-fluoropyridin-2-yl)(1-methyl-1H-pyrazol-5-yl)methyl)-4-phenethylpiperazine]
Ki: < 500 nM

Cn1nccc1C(c1ccccn1)N1CCN(CCc2ccccc2)CC1 (centres unmarked) [Example 4, 1-((1-methyl-1H-pyrazol-5-yl)(pyridin-2-yl)methyl)-4-phenethylpiperazine]
μ and σ1 dual binding: ++

Cn1nccc1C(c1ccc(F)cn1)N1CCN(CCc2cccc(F)c2)CC1 (centres unmarked) [Example 38, 1-(3-fluorophenethyl)-4-((5-fluoropyridin-2-yl)(1-methyl-1H-pyrazol-5-yl)methyl)piperazine]
Ki: < 500 nM

Cn1nccc1C(c1ccc(F)cn1)N1CCN(CCc2ccccn2)CC1 (centres unmarked) [Example 15, 1-((5-fluoropyridin-2-yl)(1-methyl-1H-pyrazol-5-yl)methyl)-4-(2-(pyridin-2-yl)ethyl)piperazine]
Ki [1]: ≥ 500 nM

Cn1nccc1C(c1ccccc1)N1CCN(CCc2ccc(F)cc2)CC1 (centres unmarked) [Example 23, 1-(4-fluorophenethyl)-4-((1-methyl-1H-pyrazol-5-yl)(phenyl)methyl)piperazine]
μ and σ1 dual binding: ++

Cn1nccc1C(c1ccccc1)N1CCN(CCc2ccccn2)CC1 (centres unmarked) [Example 1, 1-((1-Methyl-1H-pyrazol-5-yl)(phenyl)methyl)-4-(2-(pyridin-2-yl)ethyl)piperazine]
μ and σ1 dual binding: ++

COc1cccc(CCN2CCN(C(c3ccccc3)c3ccnn3C)CC2)c1 (centres unmarked) [Example 21, 1-(3-Methoxyphenethyl)-4-((1-methyl-1H-pyrazol-5-yl)(phenyl)methyl)piperazine]
Ki: < 500 nM

Cn1nccc1C(c1ccccc1)N1CCN(CCc2ccc(C(F)(F)F)nc2)CC1 (centres unmarked) [Example 24, 1-((1-methyl-1H-pyrazol-5-yl)(phenyl)methyl)-4-(2-(6-(trifluoromethyl)pyridin-3-yl)ethyl)piperazine]
Ki [1]: ≥ 500 nM

Cn1nccc1C(c1ccccc1)N1CCN(CCc2ccccc2F)CC1 (centres unmarked) [Example 22, 1-(2-fluorophenethyl)-4-((1-methyl-1H-pyrazol-5-yl)(phenyl)methyl)piperazine]
Ki: < 100 nM

COc1ccccc1CCN1CCN(C(c2ccccc2)c2ccnn2C)CC1 (centres unmarked) [Example 6, 1-(2-methoxyphenethyl)-4-((1-methyl-1H-pyrazol-5-yl)(phenyl)methyl)piperazine]
Ki [1]: ≥ 500 nM

Cn1nccc1C(c1ccc(Cl)cn1)N1CCN(CCc2ccccc2)CC1 (centres unmarked) [Example 18, 1-((5-chloropyridin-2-yl)(1-methyl-1H-pyrazol-5-yl)methyl)-4-phenethylpiperazine]
μ and σ1 dual binding: ++

Cn1nccc1C(c1ccccc1)N1CCN(CCc2cccc(F)c2)CC1 (centres unmarked) [Example 35, 1-(3-Fluorophenethyl)-4-((1-methyl-1H-pyrazol-5-yl)(phenyl)methyl)piperazine]
Ki: < 500 nM

Cn1nccc1C(c1cccc(O)c1)N1CCN(CCc2ccccc2)CC1 (centres unmarked) [Example 29, 3-((1-methyl-1H-pyrazol-5-yl)(4-phenethylpiperazin-1-yl)methyl)phenol]
Ki: < 500 nM

Cn1nccc1C(c1ccccc1)N1CCN(CCc2cccc(C(F)(F)F)n2)CC1 (centres unmarked) [Example 42, 1-((1-methyl-1H-pyrazol-5-yl)(phenyl)methyl)-4-(2-(6-(trifluoromethyl)pyridin-2-yl)ethyl)piperazine]
Ki [1]: ≥ 500 nM

Cn1nccc1C(c1ccccc1)N1CCN(CCc2cccc(N)n2)CC1 (centres unmarked) [Example 40, 6-(2-(4-((1-Methyl-1H-pyrazol-5-yl)(phenyl)methyl)piperazin-1-yl)ethyl)pyridin-2-amine]
Ki [1]: ≥ 500 nM

Cn1nccc1C(c1ccc(F)cn1)N1CCN(CCc2ncccc2Cl)CC1 (centres unmarked) [Example 43, 1-(2-(3-chloropyridin-2-yl)ethyl)-4-((5-fluoropyridin-2-yl)(1-methyl-1H-pyrazol-5-yl)methyl)piperazine]
μ and σ1 dual binding: ++

COc1cccc(C(c2ccnn2C)N2CCN(CCc3ccccc3)CC2)c1 (centres unmarked) [Example 7, 1-((3-methoxyphenyl)(1-methyl-1H-pyrazol-5-yl)methyl)-4-phenethylpiperazine]
Ki: < 100 nM

Cn1nccc1C(c1cccc(C(F)(F)F)n1)N1CCN(CCc2ccccc2)CC1 (centres unmarked) [Example 10, 1-((1-methyl-1H-pyrazol-5-yl)(6-(trifluoromethyl)pyridin-2-yl)methyl)-4-phenethylpiperazine]
μ and σ1 dual binding: ++

Cn1nccc1C(c1cccnc1C(F)(F)F)N1CCN(CCc2ccccc2)CC1 (centres unmarked) [Example 17, 1-((1-methyl-1H-pyrazol-5-yl)(2-(trifluoromethyl)pyridin-3-yl)methyl)-4-phenethylpiperazine]
Ki: < 500 nM

COc1ccccc1C(c1ccnn1C)N1CCN(CCc2ccccc2)CC1 (centres unmarked) [Example 8, 1-((2-methoxyphenyl)(1-methyl-1H-pyrazol-5-yl)methyl)-4-phenethylpiperazine]
Ki: < 500 nM

Cn1nccc1C(c1ccccc1)N1CCN(CCc2cccnc2)CC1 (centres unmarked) [Example 36, 1-((1-methyl-1H-pyrazol-5-yl)(phenyl)methyl)-4-(2-(pyridin-3-yl)ethyl)piperazine]
Ki [1]: ≥ 500 nM

Cn1nccc1C(c1ccccc1)N1CCN(CCc2ccccc2)CC1 (centres unmarked) [Example 3, 1-((1-methyl-1H-pyrazol-5-yl)(phenyl)methyl)-4-phenethylpiperazine]
Ki: < 100 nM

Cn1nccc1C(c1ccccc1)N1CCN(Cc2ccccc2)CC1 (centres unmarked) [Example 2, 1-benzyl-4-((1-methyl-1H-pyrazol-5-yl)(phenyl)methyl)piperazine]
μ and σ1 dual binding: ++

COc1cccc(CCN2CCN(C(c3ccc(F)cn3)c3ccnn3C)CC2)c1 (centres unmarked) [Example 27, 1-((5-fluoropyridin-2-yl)(1-methyl-1H-pyrazol-5-yl)methyl)-4-(3-methoxyphenethyl)piperazine]
μ and σ1 dual binding: ++

COc1ccc(C(c2ccnn2C)N2CCN(CCc3ccccc3)CC2)cc1 (centres unmarked) [Example 9, 1-((4-methoxyphenyl)(1-methyl-1H-pyrazol-5-yl)methyl)-4-phenethylpiperazine]
Ki: < 500 nM

Cn1nccc1C(c1cncc(F)c1)N1CCN(CCc2ccccc2)CC1 (centres unmarked) [Example 13, 1-((5-fluoropyridin-3-yl)(1-methyl-1H-pyrazol-5-yl)methyl)-4-phenethylpiperazine]
μ and σ1 dual binding: ++

Cn1nccc1C(c1ccccc1)N1CCN(CCc2ncccc2F)CC1 (centres unmarked) [Example 33, 1-(2-(3-Fluoropyridin-2-yl)ethyl)-4-((1-methyl-1H-pyrazol-5-yl)(phenyl)methyl)piperazine]
Ki [1]: ≥ 500 nM

Cn1nccc1C(c1ccccc1)N1CCN(CCc2cccc(N(S(C)(=O)=O)S(C)(=O)=O)n2)CC1 (centres unmarked) [Example 45, N-(6-(2-(4-((1-methyl-1H-pyrazol-5-yl)(phenyl)methyl)piperazin-1-yl)ethyl)pyridin-2-yl)-N-(methylsulfonyl)methanesulfonamide]
Ki [1]: ≥ 500 nM

Cn1nccc1C(c1ccccc1)N1CCN(CCc2ncccc2Cl)CC1 (centres unmarked) [Example 41, 1-(2-(3-chloropyridin-2-yl)ethyl)-4-((1-methyl-1H-pyrazol-5-yl)(phenyl)methyl)piperazine]
μ and σ1 dual binding: ++

Cn1nccc1C(c1ccccc1)N1CCN(CC(O)c2ccccc2)CC1 (centres unmarked) [Example 39, 2-(4-((1-Methyl-1H-pyrazol-5-yl)(phenyl)methyl)piperazin-1-yl)-1-phenylethanol]
μ and σ1 dual binding: ++

Cn1nccc1C(c1ccc(C(F)(F)F)nc1)N1CCN(CCc2ccccc2)CC1 (centres unmarked) [Example 11, 1-((1-methyl-1H-pyrazol-5-yl)(6-(trifluoromethyl)pyridin-3-yl)methyl)-4-phenethylpiperazine]
μ and σ1 dual binding: ++

Cn1nccc1C(c1ccncc1)N1CCN(CCc2ccccc2)CC1 (centres unmarked) [Example 20, 1-((1-methyl-1H-pyrazol-5-yl)(pyridin-4-yl)methyl)-4-phenethylpiperazine]
μ and σ1 dual binding: ++

Cn1nccc1C(c1cnccc1C(F)(F)F)N1CCN(CCc2ccccc2)CC1 (centres unmarked) [Example 19, 1-((1-methyl-1H-pyrazol-5-yl)(4-(trifluoromethyl)pyridin-3-yl)methyl)-4-phenethylpiperazine]
μ and σ1 dual binding: ++

Cn1nccc1C(c1ccccc1)N1CCN(CCc2cccc(O)c2)CC1 (centres unmarked) [Example 30, 3-(2-(4-((1-methyl-1H-pyrazol-5-yl)(phenyl)methyl)piperazin-1-yl)ethyl)phenol]
Ki: < 100 nM

Cn1nccc1C(c1ccccc1)N1CCN(CCc2ccc(F)cn2)CC1 (centres unmarked) [Example 34, 1-(2-(5-fluoropyridin-2-yl)ethyl)-4-((1-methyl-1H-pyrazol-5-yl)(phenyl)methyl)piperazine]
Ki [1]: ≥ 500 nM

Cn1nccc1C(c1ncccc1F)N1CCN(CCc2ccccc2)CC1 (centres unmarked) [Example 16, 1-((3-fluoropyridin-2-yl)(1-methyl-1H-pyrazol-5-yl)methyl)-4-phenethylpiperazine]
μ and σ1 dual binding: ++

Cn1nccc1C(c1ccc(F)cn1)N1CCN(CCc2ccccc2F)CC1 (centres unmarked) [Example 26, 1-(2-fluorophenethyl)-4-((5-fluoropyridin-2-yl)(1-methyl-1H-pyrazol-5-yl)methyl)piperazine]
μ and σ1 dual binding: ++

Cn1nccc1C(c1ccccc1)N1CCN(CCc2csc(N)n2)CC1 (centres unmarked) [Example 32, 4-(2-(4-((1-Methyl-1H-pyrazol-5-yl)(phenyl)methyl)piperazin-1-yl)ethyl)thiazol-2-amine]
Ki [1]: ≥ 500 nM

Cn1nccc1C(c1cccnc1)N1CCN(CCc2ccccc2)CC1 (centres unmarked) [Example 5, 1-((1-methyl-1H-pyrazol-5-yl)(pyridin-3-yl)methyl)-4-phenethylpiperazine]
μ and σ1 dual binding: ++

Cn1nccc1C(c1ccccc1)N1CCN(CCc2csc(NC(=O)OC(C)(C)C)n2)CC1 (centres unmarked) [Example 25, tert-butyl 4-(2-(4-((1-methyl-1H-pyrazol-5-yl)(phenyl)methyl)piperazin-1-yl)ethyl)thiazol-2-ylcarbamate]
Ki [1]: ≥ 500 nM
